From patent US20250353857A1, “COMPOUND ACTIVE AS INHIBITOR OF COLONY STIMULATION FACTOR-1 RECEPTOR (CSF-1 R)” (priority 2022, published 2025)
Read-outs that look alike come from different tables or passages of the source.

Key:
[1] = test system: P-MAPK (ERK1/2) in CSF-1 stimulated bone-marrow derived macrophages; test: Effect of CSF1R inhibitors on MAPK signaling in mouse bone-marrow derived macrophages; type: cell-based; conditions: fold change relative to PLX3397 (IC50 inhibitor/IC50 PLX3397), P-MAPK/total MAPK, 10 ng/mL CSF-1
[2] = molecular target: CSF1R (Homo sapiens (Human), UniProt P07333); test: CSF1R enzymatic inhibitory assay (Invitrogen Z'-LYTE, FRET); type: biochemical;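 note: kinase phosphorylates a tyrosine on a coumarin/fluorescein FRET peptide, a protease cuts peptide left unphosphorylated, inhibition quantified from the donor-to-acceptor emission ratio with excitation at 400 nm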
CSF1R, sequence (P07333 20-972): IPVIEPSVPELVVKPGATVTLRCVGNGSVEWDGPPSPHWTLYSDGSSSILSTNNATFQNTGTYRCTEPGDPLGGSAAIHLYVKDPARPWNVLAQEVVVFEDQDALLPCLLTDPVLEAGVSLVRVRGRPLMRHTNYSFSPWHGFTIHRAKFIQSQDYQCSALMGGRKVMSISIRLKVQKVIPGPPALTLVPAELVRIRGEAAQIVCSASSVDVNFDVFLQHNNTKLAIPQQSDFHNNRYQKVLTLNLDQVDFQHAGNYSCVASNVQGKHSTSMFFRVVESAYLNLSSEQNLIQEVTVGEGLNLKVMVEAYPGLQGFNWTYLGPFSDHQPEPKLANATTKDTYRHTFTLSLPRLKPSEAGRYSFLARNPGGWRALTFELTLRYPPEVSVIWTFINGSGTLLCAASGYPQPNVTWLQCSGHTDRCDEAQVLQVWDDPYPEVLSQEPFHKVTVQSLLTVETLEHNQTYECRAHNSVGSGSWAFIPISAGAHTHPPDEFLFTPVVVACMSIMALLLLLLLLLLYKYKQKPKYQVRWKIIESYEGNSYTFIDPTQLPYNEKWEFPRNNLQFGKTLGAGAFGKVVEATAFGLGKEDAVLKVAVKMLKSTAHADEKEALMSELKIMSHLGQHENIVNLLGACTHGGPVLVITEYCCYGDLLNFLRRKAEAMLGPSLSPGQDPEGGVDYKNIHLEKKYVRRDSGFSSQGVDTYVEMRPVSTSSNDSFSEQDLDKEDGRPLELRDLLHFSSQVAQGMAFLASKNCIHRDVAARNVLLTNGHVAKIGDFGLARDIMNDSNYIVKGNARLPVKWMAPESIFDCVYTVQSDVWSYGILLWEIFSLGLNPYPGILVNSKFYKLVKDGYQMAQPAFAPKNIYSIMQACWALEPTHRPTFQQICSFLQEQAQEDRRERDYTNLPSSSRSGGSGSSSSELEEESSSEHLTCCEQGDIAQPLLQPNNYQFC

[3] = Z'-LYTE assay, ATP concentration equal to Km, average of at least 2 titration curves, read-out: CSF1R (IC50)

SMILES	MAPK (fold) [1]	IC50 [2]	IC50 [2, 3]
COc1cccc(CN(C)c2ncnc3[nH]c(-c4ccc(CCC(=O)O)cc4)cc23)c1 [FAB01-23, 3-(4-(4-((3-Methoxybenzyl)(methyl)amino)-7H-pyrrolo[2,3-d]pyrimidin-6-yl)phenyl)propanoic acid]	>5 fold	0.2 nM	–
COc1ccc(CN(C)c2ncnc3[nH]c(-c4ccc(CCC(=O)O)cc4)cc23)cc1OC [FAB 01-24, 3-(4-(4-((3,4-Dimethoxybenzyl)(methyl)amino)-7H-pyrrolo[2,3-d]pyrimidin-6-yl)phenyl)propanoic acid]	>5 fold	–	0.6 nM
CN(Cc1ccccc1)c1ncnc2[nH]c(-c3ccccc3CO)nc12 [JKS02-027, (2-(6-(Benzyl(methyl)amino)-9H-purin-8-yl)phenyl)methanol]	>3 fold	–	1.2 ± 0.2 nM
Cc1cccc(CN(C)c2ncnc3[nH]c(-c4ccc(C5CCCC(=O)O5)cc4)cc23)c1 (centres unmarked) [LR-1-124, 6-(4-(4-(Methyl(3-methylbenzyl)amino)-7H-pyrrolo[2,3-d]pyrimidin6-yl)phenyl)tetrahydro-2H-pyran-2-one]	2.1 fold	–	0.8 ± 0.1 nM
COc1ccc(CN(C)c2ncnc3[nH]c(-c4ccc(CO)cc4)nc23)cc1OC [TIA03-080, N-(3,4-Dimethoxybenzyl)-N-methyl-8-(4-(hydroxymethyl)phenyl)-9H-purin-6-amine]	–	–	5.7 ± 0.3 nM
CN(Cc1cccc(C(F)(F)F)c1)c1ncnc2[nH]c(-c3ccc(CO)cc3)nc12 [TIA03-108, N-Methyl-N-(3-trifluoromethylbenzyl)-8-(4-(hydroxymethyl)phenyl)-9H-purin-6-amine]	–	–	11 ± 2 nM
Cc1ccccc1CN(C)c1ncnc2[nH]c(-c3ccc(CO)cc3)nc12 [TIA03-136, N-Methyl-N-(2-methylbenzyl)-8-(4-(hydroxymethyl)phenyl)-9H-purin-6-amine]	–	–	1.8 nM
CN(CC1CCCCC1)c1ncnc2[nH]c(C3=CCCCC3)nc12 [TIA03-186, 8-(Cyclohex-1-en-1-yl)-N-(cyclohexylmethyl)-N-methyl-9H-purin-6-amine]	–	–	0.7 ± 0.2 nM
CN(CC1CCN(Cc2ccccc2)CC1)c1ncnc2[nH]c(-c3ccc(CO)cc3)nc12 [TIA04-053, N-Methyl-N-(1-benzylpiperidin-4-ylmethyl)-8-(4-(hydroxymethyl)phenyl)-9H-purin-6-amine]	–	–	130 ± 12 nM
CN(Cc1ccccc1)c1ncnc2[nH]ccc12 [TIA04-067, N-Benzyl-N-methyl-7H-pyrrolo[2,3-d]pyrimidin-4-amine]	–	–	68 ± 2 nM
Cc1cccc(CN(C)c2ncnc3[nH]ccc23)c1 [TIA04-069, N-Methyl-N-(3-methylbenzyl)-7H-pyrrolo[2,3-d]pyrimidin-4-amine]	–	–	35 nM
NC1NC=Nc2[nH]c(-c3ccc(CO)cc3)cc21 (centres unmarked) [TIA05-102]	–	–	85 nM
OCc1ccc(-c2cc3c(N4CCCC4c4ccccc4)ncnc3[nH]2)cc1 (centres unmarked) [TIA05-178, (4-(4-(2-Phenylpyrrolidin-1-yl)-7H-pyrrolo[2,3-d]pyrimidin-6-yl)phenyl)methanol]	–	–	0.7 ± 0.1 nM
CN(Cc1ccccc1)c1ncnc2[nH]cnc12 [TIA008, N-Benzyl-N-methyl-9H-purin-6-amine]	–	–	108 ± 7 nM
CN(Cc1ccccc1)c1ncnc2[nH]c(-c3ccccc3)nc12 [TIA072, N-Benzyl-N-methyl-8-phenyl-9H-purin-6-amine]	–	–	0.7 ± 0.1 nM
CN(Cc1ccccc1)c1ncnc2[nH]c(-c3ccccc3O)nc12 [TIA073, 2-(6-(Benzyl(methyl)amino)-9H-purin-8-yl)phenol]	–	–	3.4 ± 0.2 nM
OCc1ccc(-c2nc3c(NCc4ccccc4)ncnc3[nH]2)cc1 [TIA098, (4-(6-(Benzylamino)-9H-purin-8-yl)phenyl)methanol]	–	–	43 ± 6 nM
c1ccc(CNc2ncnc3[nH]c(-c4ccccc4)nc23)cc1 [TIA099, N-Benzyl-8-phenyl-9H-purin-6-amine]	–	–	85 ± 10 nM
CN(Cc1cccnc1)c1ncnc2[nH]c(-c3ccccc3)nc12 [TIA109, N-Methyl-8-phenyl-N-(pyridin-3-ylmethyl)-9H-purin-6-amine]	–	–	2.2 nM
